Test results taken from paper PMC4305367 (Cancer Chemotherapy and Pharmacology, 2014).
“Also recorded” adds a separate entry of the source.

Legend:
[1] = tested on: Japanese patients with castration-resistant prostate cancer; test: Phase 1 safety assessment: adverse events (NCI-CTCAE v3.0), DLT, laboratory profiles, ECG; format: in vivo, human
Excerpt: The propriety of transitions to subsequent dose cohort was judged on the basis of the number of patients with dose-limiting toxicities (DLTs) during Cycle 1 (28 days). […] Patients could continue study treatment until criteria for treatment discontinuation were met. The use of aldosterone antagonists (e.g., eplerenone) was allowed for patients with clinical symptoms of mineralocorticoid excess such as hypertension, hypokalemia, and edema.
Safety assessments included the evaluation of adverse events (AEs), laboratory profiles, physical examination, and vital signs throughout the study. AEs were graded using National Cancer Institute Common Terminology Criteria for Adverse Events (NCI-CTCAE) v3.0. Analysis of serum amylase and lipase was added to the clinical laboratory tests before enrollment of patients into the 400-mg BID plus prednisolone cohort because pancreatitis was reported during the study. A safety follow-up was performed for 28 days after the final dose of the study treatment. During Cycle 1 (28 days), DLT was also evaluated. DLTs were defined as any drug-related AE of ≥ Grade 3 and pre-specified cardiac-related AEs of lower grade. Hypertension, hypokalemia, and edema attributed to increased ACTH secretion maintained at Grade 2 or lower through the use of eplerenone were not considered DLTs.

clinical = details: human, in vivo; for AUC(0-t): AUC0–8h; for Cmax: C max
[2] = male, human, in vivo, 24 h
serum testosterone = test: Pharmacodynamics: serum testosterone; format: in vivo, human; details: for Serum testosterone: mean (SD), LLOQ 0.05 or 0.03
Description: (§1) Endocrine parameters such as serum testosterone and dehydroepiandrosterone sulfate (DHEA-S) were measured for PD analysis. The blood sample were collected on Days 1, 8, 15, and 22 of Cycle 1 and then on Day 1 of each subsequent 28-day cycle. Assay procedure for testosterone was improved during the study, and the lower limit of quantification (LLOQ) for testosterone changed from 0.05 to 0.03 ng/mL.

[3] = tested on: dehydroepiandrosterone sulfate (DHEA-S); test: Pharmacodynamics: serum DHEA-S; format: in vivo, human; details: for Serum DHEA-S: mean (SD), LLOQ 2.0
Description: as §1

[4] = tested on: prostate-specific antigen (PSA); test: Serum PSA levels and PSA response (PCWG2 criteria); format: in vivo, human; details: during the study; 15 patients
Description: (§2) The efficacy endpoints were serum PSA levels, PSA response rates based on the Prostate Cancer Clinical Trials Working Group (PCWG) 2 criteria, and objective disease response rates based on the General Rule for Clinical and Pathological Studies on Prostate Cancer and modified RECIST version 1.0. PSA levels were measured on Days 1 and 15 in Cycle 1, on Day 1 of Cycle 2 and each subsequent cycle. Tumor assessments were performed on Day 29, 85, and every 12-week cycle for subsequent cycles.

[5] = tested on: castration-resistant prostate cancer; test: Objective disease response (General Rule for Prostate Cancer; modified RECIST 1.0); format: in vivo, human
Description: as §2

serum androgen levels = details: monkeys; cited from earlier work
[6] = General Rule for Clinical and Pathological Studies on Prostate Cancer, 15 patients

CNC(=O)c1ccc2cc([C@@]3(O)CCn4cncc43)ccc2c1 [Orteronel]
Deaths ([1]; during the study, 15 patients): No deaths were reported
Number of SAEs considered related to the study treatment ([1]; in vivo): nine
Patients with acute pancreatitis (Grades 2 and 3) or pancreatitis (Grade 1) ([1]; in vivo): three
Patients with pancreatic-related AEs ([1]; in vivo): ten
Serious AEs (SAEs) in Cycle 1 ([1]; in vivo): Neither DLTs nor serious AEs (SAEs) were reported
TEAEs associated with adrenal insufficiency ([1]; in vivo): No TEAE associated with adrenal insufficiency was reported
Treatment-related SAEs in the 200- and 300-mg BID cohorts ([1]; in vivo): No treatment-related SAE was observed
12-lead ECG and echocardiography findings ([1]; male, human, in vivo): No clinically significant abnormal 12-lead ECG and echocardiography findings were observed
Abnormalities in hematologic test or urinalysis ([1]; male, human, in vivo): No Grade 3 or higher abnormalities were observed
Incidence of constipation (AE) ([1]; male, human, in vivo): 33%
Incidence of hyperamylasemia (AE) ([1]; male, human, in vivo): 40%
Incidence of hyperlipasemia (AE) ([1]; male, human, in vivo): 47%
Mineralocorticoid-related TEAE: hypertension ([1]; male, human, in vivo): 4 n
Mineralocorticoid-related TEAE: hypokalemia ([1]; male, human, in vivo): 3 n
Patients who experienced SAEs ([1]; male, human, in vivo): 60%
Patients with at least 1 TEAE ([1]; male, human, in vivo): 100%
Patients with at least 1 treatment-related AE ([1]; male, human, in vivo): 93%
TEAE subject incidence: Abdominal pain upper ([1]; male, human, in vivo): 2 (13) n (%)
TEAE subject incidence: Blood creatine phosphokinase increased ([1]; male, human, in vivo): 2 (13) n (%)
TEAE subject incidence: Constipation ([1]; male, human, in vivo): 5 (33) n (%)
TEAE subject incidence: Contusion ([1]; male, human, in vivo): 2 (13) n (%)
TEAE subject incidence: Dysgeusia ([1]; male, human, in vivo): 4 (27) n (%)
TEAE subject incidence: Fall ([1]; male, human, in vivo): 2 (13) n (%)
TEAE subject incidence: Hepatic function abnormal ([1]; male, human, in vivo): 4 (27) n (%)
TEAE subject incidence: Insomnia ([1]; male, human, in vivo): 2 (13) n (%)
TEAE subject incidence: Malaise ([1]; male, human, in vivo): 4 (27) n (%)
TEAE subject incidence: Nasopharyngitis ([1]; male, human, in vivo): 3 (20) n (%)
TEAE subject incidence: Nausea ([1]; male, human, in vivo): 3 (20) n (%)
TEAE subject incidence: Rash ([1]; male, human, in vivo): 3 (20) n (%)
TEAE subject incidence: Vomiting ([1]; male, human, in vivo): 2 (13) n (%)
Total number of SAEs ([1]; male, human, in vivo): 14 SAEs
AUC(0-t) (clinical; 300 mg): 14500 ng·h/mL
AUC(0-t) (clinical; 400 mg): 28600 ng·h/mL
Time to C max (T max), range over cohorts (clinical; male): 1 to 3 h
Tmax (clinical; male, 200 mg): 1 h
AUC(0-t) (clinical; male, 200 mg): 7640 ng·h/mL
Cmax (clinical; male, 200 mg): 1580 ng/mL
Tmax (clinical; male, 300 mg): 3 h
Cmax (clinical; male, 300 mg): 3100 ng/mL
Tmax (clinical; male, 400 mg): 2.97 h
Cmax (clinical; male, 400 mg): 4700 ng/mL
Fractional urinary excretion rate [2]: 36 to 47 % of the dose
Serum testosterone (serum testosterone; Cycle 1 Day 8, 200 mg BID (N = 3), screening 0.153 (0.0611)): 0.050 (0.0000) ng/mL
Serum testosterone (serum testosterone; Cycle 1 Day 8, 300 mg BID (N = 3), screening 0.123 (0.0702)): 0.030 (0.0000) ng/mL
Serum testosterone (serum testosterone; Cycle 1 Day 8, 300 mg BID + prednisolone (N = 3), screening 0.127 (0.0473)): 0.030 (0.0000) ng/mL
Serum testosterone (serum testosterone; Cycle 1 Day 8, 400 mg BID (N = 3), screening 0.057 (0.0115)): 0.050 (0.0000) ng/mL
Serum testosterone (serum testosterone; Cycle 1 Day 8, 400 mg BID + prednisolone (N = 3), screening 0.053 (0.0058)): 0.043 (0.0115) ng/mL
Serum testosterone (serum testosterone; Cycle 2 Day 1, 200 mg BID (N = 3), screening 0.153 (0.0611)): 0.050 (0.0000) ng/mL
Serum testosterone (serum testosterone; Cycle 2 Day 1, 300 mg BID (N = 3), screening 0.123 (0.0702)): 0.030 (0.0000) ng/mL
Serum testosterone (serum testosterone; Cycle 2 Day 1, 300 mg BID + prednisolone (N = 3), screening 0.127 (0.0473)): 0.030 (0.0000) ng/mL
Serum testosterone (serum testosterone; Cycle 2 Day 1, 400 mg BID (N = 3), screening 0.057 (0.0115)): 0.050 (0.0000) ng/mL
Serum testosterone (serum testosterone; Cycle 2 Day 1, 400 mg BID + prednisolone (N = 3), screening 0.053 (0.0058)): 0.037 (0.0115) ng/mL
Suppression of serum testosterone (serum testosterone; by 1 week after initiation (Day 8), across all cohorts): rapidly suppressed below the lower limit of quantification; also recorded: rapidly suppressed to the LLOQ or lower
Serum DHEA-S ([3]; Cycle 1 Day 8, 200 mg BID (N = 3), screening 114.7 (8.96)): 25.0 (7.21) μg/dL
Serum DHEA-S ([3]; Cycle 1 Day 8, 300 mg BID (N = 3), screening 146.7 (79.83)): 23.3 (14.57) μg/dL
Serum DHEA-S ([3]; Cycle 1 Day 8, 300 mg BID + prednisolone (N = 3), screening 136.0 (52.68)): 6.3 (4.16) μg/dL
Serum DHEA-S ([3]; Cycle 1 Day 8, 400 mg BID (N = 3), screening 60.3 (8.50)): 9.3 (0.58) μg/dL
Serum DHEA-S ([3]; Cycle 1 Day 8, 400 mg BID + prednisolone (N = 3), screening 40.3 (7.57)): 2.3 (0.58) μg/dL
Serum DHEA-S ([3]; Cycle 2 Day 1, 200 mg BID (N = 3), screening 114.7 (8.96)): 30.0 (9.64) μg/dL
Serum DHEA-S ([3]; Cycle 2 Day 1, 300 mg BID (N = 3), screening 146.7 (79.83)): 24.3 (11.93) μg/dL
Serum DHEA-S ([3]; Cycle 2 Day 1, 300 mg BID + prednisolone (N = 3), screening 136.0 (52.68)): 2.3 (0.58) μg/dL
Serum DHEA-S ([3]; Cycle 2 Day 1, 400 mg BID (N = 3), screening 60.3 (8.50)): 19.3 (16.29) μg/dL
Serum DHEA-S ([3]; Cycle 2 Day 1, 400 mg BID + prednisolone (N = 3), screening 40.3 (7.57)): 2.0 (0.00) μg/dL
Suppression of serum DHEA-S ([3]; Day 8): suppressed
Overall median maximum PSA reduction [4]: 88.48%
Objective response rate (CR + PR) ([5]; General Rule for Clinical and Pathological Studies on Prostate Cancer, 5/15 patients): 33%
Best response of complete response (CR) [5, 6]: no patient had a best response of complete response (CR)
Patients with best response of partial response (PR) [5, 6]: five
Best response by modified RECIST version 1.0 ([5]; only six patients had measurable disease): No patient had a best response of CR or PR
Effect on serum androgen levels in vivo (serum androgen levels): reduced serum androgen levels
